The values below are quoted from earlier work in patent US20250114367A1, “METHOD OF TREATING HAIR LOSS DISORDERS” (Sun Pharmaceutical Industries, Inc., priority 2023, published 2025).

The series has as its system subjects with AA. The note with it: ritlecitinib 50 mg; up to 48 weeks; FIG. 13C; cited from earlier work.

Turning to `C=CC(=O)N1C[C@H](Nc2ncnc3[nH]ccc23)CC[C@@H]1C` [ritlecitinib], the “proportion of participants achieving SALT ≤20” value is at most 50%.
